# Results taken from patent publication US11311565B2, “Synergistic nutritional compositions for promoting axonal regeneration” (CELAGENEX RESEARCH (INDIA) PVT. LTD., priority 2020, dated 2022).
# What was measured:
# Assay type in all cases: in vivo, Swiss albino mice
# [1] = test system: axons crossing denervated side; experiment: SCI animal study: subjects with >1000 axons crossing denervated side; details: animals subjected to SCI; % subjects
# Source text: (§1) The purpose of this study is to evaluate the effect of the test substance in Swiss albino rats.
# (§2) No. of animals: 30 Animals (5 groups of 6 animals each)
# (§3) Group 1 is placebo, Group 2 was given a standard treatment of antithrombotic, antiepileptic, anti-inflammatory and steroid protocol (methylprednisolone) and Group 3, Group 4 and Group 5 served as test substance. Animals were subjected to SCI and outcome measures were monitored.
# 4. Subjects with >1000 axons crossing denervated side—as % subjects
# BDNF = experiment: SCI animal study: fold increase in plasticity protein BDNF; details: animals subjected to SCI, 6 animals per group
# Source text: as §1, §2, §3
# NTF3 = experiment: SCI animal study: fold increase in plasticity protein NTF3; details: animals subjected to SCI, 6 animals per group
# Source text: as §1, §2, §3
# GAP-43 = experiment: SCI animal study: fold increase in plasticity protein GAP-43; details: animals subjected to SCI, 6 animals per group
# Source text: as §1, §2, §3
# NGF = experiment: SCI animal study: fold increase in plasticity protein NGF; details: animals subjected to SCI, 6 animals per group
# Source text: as §1, §2, §3
# animals subjected to SCI = experiment: SCI animal study: improvement of limb movements; details: baseline is 1
# Source text: as §1, §2, §3
compound,measurement,setting,value
"N=C(N)NCCCCN.O=S(=O)(O)O [Test II, Agmatine Sulphate]",percentage of subjects with >1000 axons crossing denervated side,[1],18%
same,No. of fold increase in plasticity proteins from baseline: BDNF,BDNF,2.44 fold
same,No. of fold increase in plasticity proteins from baseline: NTF3,NTF3,1.17 fold
same,No. of fold increase in plasticity proteins from baseline: GAP-43,GAP-43,3.44 fold
same,No. of fold increase in plasticity proteins from baseline: NGF,NGF,1.69 fold
same,Percentage improvement of limb movements to baseline (Baseline as 1),animals subjected to SCI,0.34
